According to paper PMC7466040, “Sevanol and Its Analogues: Chemical Synthesis, Biological Effects and Molecular Docking” (Pharmaceuticals, 2020):

Key:
rat ASIC1a = target: T1, rat ASIC1a (Rattus norvegicus, UniProt P55926); assay: Two-electrode voltage clamp on X. laevis oocytes expressing rat ASIC1a; assay type: cell-based
T1 construct: expressed in transfected cells; host or cells: Xenopus laevis oocytes (cRNA injection)
T1 sequence (P55926 1-526): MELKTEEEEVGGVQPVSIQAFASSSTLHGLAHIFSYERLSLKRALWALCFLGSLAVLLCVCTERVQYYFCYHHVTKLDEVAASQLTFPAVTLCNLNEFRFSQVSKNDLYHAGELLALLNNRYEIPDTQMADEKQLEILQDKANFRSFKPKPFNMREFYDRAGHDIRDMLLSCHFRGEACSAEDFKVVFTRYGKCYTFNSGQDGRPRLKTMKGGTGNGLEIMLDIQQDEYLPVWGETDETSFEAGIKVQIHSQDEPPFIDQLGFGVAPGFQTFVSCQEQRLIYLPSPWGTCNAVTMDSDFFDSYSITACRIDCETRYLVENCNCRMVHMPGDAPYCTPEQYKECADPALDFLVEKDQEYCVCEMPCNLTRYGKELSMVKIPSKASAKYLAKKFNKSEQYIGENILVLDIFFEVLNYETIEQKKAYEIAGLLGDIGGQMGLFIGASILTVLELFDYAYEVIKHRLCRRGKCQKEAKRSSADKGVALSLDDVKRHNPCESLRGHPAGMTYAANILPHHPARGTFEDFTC
Protocol: Testing the activity of synthetic sevanol (s706) (as a mixture of 75% of sevanol and 25% of isosevanol) and its analogues (s590, EA, and s788) was carried out by the standard two-electrode voltage clamp method on X. laevis oocytes expressing rat ASIC1a and ASIC3 channels. The activation of the channels was performed using a rapid change of the solution from conditioning pH 7.4 to a solution with pH 5.5. Sevanol and its two analogues, s590 and EA, inhibited ASIC1a and ASIC3 channels.
Oocytes were harvested from female frogs anaesthetized with tricaine methane sulfonate (MS222) (0.17% solution), and the surgery was performed in an ice bath to avoid heavy bleeding. Defolliculated stage IV and V cells were injected with 2.5 and 10 ng cRNA, synthesized from PCi plasmids containing the rat ASIC1a and rat ASIC3 isoforms, respectively, using the Nanoliter 2000 microinjection system (World Precision Instruments, USA). The injected oocytes were kept for 2–3 days at 17 to 19 °C, and then for up to 5 days at 15 °C in a ND96 medium containing (in mM) 96 NaCl, 2 KCl, 1.8 CaCl2, 1 MgCl2, and 5 HEPES titrated to pH 7.4 with NaOH supplemented with gentamycin (50 μg/mL). Two-electrode voltage clamp recordings were performed at a holding potential of −50 mV using a GeneClamp 500 amplifier (Axon Instruments), and the data were filtered at 20 Hz and digitized at 100 Hz by an AD converter L780 (LCard, Russia). Microelectrodes were filled with 3 M KCl. The conditioning bath solution was ND96; the pH was adjusted to 7.4. The activating test solution was constructed based on the ND-96 buffer, in which 5 mM HEPES was replaced with 10 mM MES and pH was adjusted to 5.5. A computer-controlled valve system was used to achieve a rapid solution exchange in the recording chamber. A four parameter logistic equation was used for the curve-fitting analysis: F(x) = ((a1 − a2)/(1 + (x/x0)n)) + a2, where x is the concentration of the compound; F(x) is the response value at a given concentration of the compound; a1 is the control response value (fixed at 100%); x0 is the IC50 value; n is the Hill coefficient (slope factor); and a2 is the response value at the maximal inhibition (% of control).
Figure 2 The inhibitory activity of sevanol (s706) and its analogues. Currents were elicited by a drop from pH 7.4 to 5.5; the holding potential was −50 mV; (A,C) are dose–response curves for s706, s590 and EA inhibitory effects on ASIC1a and ASIC3 channels, respectively; (B,D) are reciprocal IC50 values for s706, s590 and EA inhibitory effects on ASIC1a and ASIC3 channels, respectively. The data were fitted by the logistic equation. Each point is the mean ± SEM of 5–6 measurements. * p < 0.05, ** p < 0.005.

ICR male mice [1] = assay: CFA-induced paw oedema; assay type: in vivo; details: p.o. only, not i.v. or i.n., 2, 4, 8 and 24 h
ICR male mice [2] = assay: Complete Freund's adjuvant-induced thermal hyperalgesia (hot plate); assay type: in vivo; details: hot plate 53 °C
Protocol: Specific pathogen-free outbred ICR male mice (6 to 8 weeks old, weighing 29 to 33 g) were obtained from the Animal Breeding Facility of the Branch of the Shemyakin-Ovchinnikov Institute of Bioorganic Chemistry of the Russian Academy of Sciences (Pushchino). The animals were acclimatized for 2 weeks before the experimental procedures, and were kept in two-corridor barrier rooms under a controlled environment: a temperature of 20 to 24 °C, a relative humidity of 30% to 60%, and a 12 h light cycle. The animals were housed in Type 3 standard polycarbonate cages (820 cm2) on bedding (LIGNOCEL BK 8/15, JRS, Germany), with ad libitum access to feed (SSNIFF V1534-300, Spezialdiaeten, GmbH) and filtered tap water. The mouse cages were also supplied with material for environmental enrichment, i.e., Mouse House (Techniplast, Italy). Sevanol or the vehicle was administered intravenously, intranasally and orally (30 min before testing).
The development of the inflammation and thermal hyperalgesia of the paw was induced by the injection of the oil/saline (1:1) CFA emulsion into the dorsal surface of the hind paw of the mice (20 μL/paw) 24 h before the measurement. Saline (20 μL) was injected into the control mice. The inflamed paw withdrawal latencies to thermal stimulation were measured on a hot plate device (Hot Plate Analgesia Meter, Columbus Instruments) with a set temperature of 53 ± 0.1 °C and a cut-off time of 60 s.
Figure 5 The analgesic and anti-inflammatory effects of sevanol following intravenous, intranasal and per os administration. The effect of sevanol on the acetic acid induced writhing (A–C) and on the mice withdrawal latency on a hot plate in the thermal hyperalgesia test after CFA injection (D–F) upon intravenous (A,D), intranasal (B,E) and oral (C,F) administration. […] The results are presented as the mean ± SD (n = 6–10). The p-values of the sevanol groups vs. the saline group are based on an analysis of variance and on Tukey’s test; * p < 0.05, ** p < 0.005, *** p < 0.001.

## O=C(O)CC(C(=O)O)C(OC(=O)C1=Cc2cc(O)c(O)cc2C(c2ccc(O)c(O)c2)C1C(=O)OC(C(=O)O)C(CC(=O)O)C(=O)O)C(=O)O (stereo not drawn) [sevanol]
Rat ASIC1a; X. laevis oocytes, pH drop 7.4 to 5.5, holding potential −50 mV, mean ± SEM of 5–6, read-out: IC50, inhibition of ASIC1a current
  IC50: 228 ± 37.4 µM
Rat ASIC1a; pH 7.4 to 5.5, effect reversible
  maximal current block, ASIC1a: 100%
ICR male mice [1]
  paw oedema reduction: significant reduction in paw oedema
ICR male mice [2]; intranasal
  dose at which reversal of CFA-induced thermal hyperalgesia reached statistical significance, i.n.: 1 mg/kg
ICR male mice [2]; intravenous
  dose at which reversal of CFA-induced thermal hyperalgesia reached statistical significance, i.v.: 1 mg/kg
ICR male mice [2]; oral
  dose at which reversal of CFA-induced thermal hyperalgesia was statistically significant, p.o.: 0.1 mg/kg
